MIC data for 2 compounds are collected here from patent publication US5935952A, “Quinolone- or naphthylidone-carboxylic acid derivates or their salts” (Toyama Chemical Co., LTD., priority 1994, dated 1999).

≈ marks a conversion by molar mass, not a printed value. Read-outs that look alike come from different tables or passages of the source.

Common to all, as to format: cell-based
The subject of one test is E. coli NIHJ JC-2. The test is described as follows: Antibacterial activity (MIC, agar dilution, standard method of Japan Society of Chemotherapy) against E. coli NIHJ JC-2. As to conditions: Escherichia coli. The text has this:
(§1) According to the standard method of Japan Society of Chemotherapy [CHEMOTHERAPY, vol.

A further test concerns S. aureus F-137. Description: Antibacterial activity (MIC, agar dilution, standard method of Japan Society of Chemotherapy) against S. aureus F-137*. The note with it: Staphylococcus aureus, F137; S. aureus F-137, β-lactamase-producing bacteria; Mueller Hinton agar, 37° C., 20 hours, 10^6 cells/plate.
From the text: as §1
*: β-lactamase-producing bacteria
In general terms: In agar dilution, organisms are placed on agar that contains the substance at set levels.

The next test concerns S. aureus F-597. The test is described as follows: Antibacterial activity (MIC, agar dilution, standard method of Japan Society of Chemotherapy) against S. aureus F-597**. As to conditions: Staphylococcus aureus; S. aureus F-597, MRSA (methicillin-resistant S. aureus); Mueller Hinton agar, 37° C., 20 hours, 10^6 cells/plate.
From the text: as §1
**: MRSA (methicillin-resistant S. aureus)

The test system of the next test is S. aureus FDA 209P. Description: Antibacterial activity (MIC, agar dilution, standard method of Japan Society of Chemotherapy) against S. aureus FDA 209P. The note with it: Staphylococcus aureus, FDA209P.
From the text: as §1

With `Cc1c(-c2ccc3c(c2)CNC3)c(F)cc2c(=O)c(C(=O)O)cn(C3CC3)c12` [Compound A, 1-cyclopropyl-6-fluoro-7-(isoindolin-5-yl)-8-methyl-1,4-dihydro-4-oxoquinoline-3-carboxylic acid], the minimum inhibitory concentration (MIC) (usually the lowest concentration that inhibits growth of the organism) in the test on E. coli NIHJ JC-2 (NIHJJC2, E. coli NIHJ JC-2, Mueller Hinton agar, 37° C., 20 hours, 10^6 cells/plate, read-out: MIC) was ≤ 0.05 µg/mL; against S. aureus F-137 it was ≤ 0.05 µg/mL; in the test on S. aureus F-597 it was ≤ 0.05 µg/mL; with S. aureus FDA 209P (S. aureus FDA 209P, Mueller Hinton agar, 37° C., 20 hours, 10^6 cells/plate, read-out: MIC), ≤ 0.05 µg/mL.
On to `O=C(O)c1cn(C2CC2)c2cc(N3CCNCC3)c(F)cc2c1=O` [Compound B, 1-cyclopropyl-6-fluoro-7-(1-piperazinyl)-1,4-dihydro-4-oxoquinoline-3-carboxylic acid, reference compound], for which the minimal inhibitory concentration (MIC) was ≤ 0.05 µg/mL in the test with E. coli NIHJ JC-2 (NIHJJC2, 20 h) and 0.2 µg/mL (≈ 0.604 µM) in the test on S. aureus FDA 209P (20 h).
